{
  "source": "PubChem BioAssay (NCI)",
  "experiment_in_all_cases": "growth of human tumour cells (NCI), 48 h",
  "key": {"[1]": {"system": "M14 melanoma"}, "[2]": {"system": "HCT-15 colon"}, "[3]": {"system": "KM12 colon"}, "[4]": {"system": "UACC-62 melanoma"}, "[5]": {"system": "OVCAR-8 ovarian"}, "[6]": {"system": "SF-268 CNS"}, "[7]": {"system": "TK-10 renal"}, "[8]": {"system": "NCI-H460 lung"}, "[9]": {"system": "K-562 leukemia"}, "[10]": {"system": "NCI-H522 lung"}, "[11]": {"system": "OVCAR-3 ovarian"}, "[12]": {"system": "SK-MEL-2 melanoma"}, "[13]": {"system": "SF-539 CNS"}, "[14]": {"system": "SNB-75 CNS"}, "[15]": {"system": "SR leukemia"}, "[16]": {"system": "A498 renal"}, "[17]": {"system": "BT-549 breast"}, "[18]": {"system": "PC-3 prostate"}, "[19]": {"system": "COLO 205 colon"}, "[20]": {"system": "MALME-3M melanoma"}, "[21]": {"system": "MDA-MB-231 breast"}, "[22]": {"system": "786-0 renal"}, "[23]": {"system": "MCF7 breast"}, "[24]": {"system": "SK-OV-3 ovarian"}, "[25]": {"system": "SN12C renal"}, "[26]": {"system": "HCC-2998 colon"}, "[27]": {"system": "T-47D breast"}, "[28]": {"system": "UACC-257 melanoma"}, "[29]": {"system": "UO-31 renal"}, "[30]": {"system": "ACHN renal"}},
  "note": "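Five concentrations, 48 hours, 96-well plates. Abbreviation: GI50, concentration required for 50% inhibition of growth. TGI is the concentration that stops growth completely.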",
  "data": [
    {"smiles": "CC(=C(c1ccc(OCCN2CCCCC2)cc1)c1ccc(OCCN2CCCCC2)cc1)c1ccccc1", "values": [
      {"measurement": "TGI", "setting": "[1]", "value": 8.32, "unit": "µM"},
      {"measurement": "GI50", "setting": "[2]", "value": 4.98, "unit": "µM"},
      {"measurement": "TGI", "setting": "[2]", "value": "> 21.8", "unit": "µM"},
      {"measurement": "GI50", "setting": "[3]", "value": 8.17, "unit": "µM"},
      {"measurement": "TGI", "setting": "[3]", "value": "> 21.8", "unit": "µM"},
      {"measurement": "GI50", "setting": "[4]", "value": 3.64, "unit": "µM"},
      {"measurement": "TGI", "setting": "[4]", "value": 6.83, "unit": "µM"},
      {"measurement": "GI50", "setting": "[5]", "value": "> 21.8", "unit": "µM"},
      {"measurement": "TGI", "setting": "[5]", "value": "> 21.8", "unit": "µM"},
      {"measurement": "GI50", "setting": "[6]", "value": 5.56, "unit": "µM"},
      {"measurement": "TGI", "setting": "[6]", "value": "> 21.8", "unit": "µM"},
      {"measurement": "GI50", "setting": "[7]", "value": 16.7, "unit": "µM"},
      {"measurement": "TGI", "setting": "[7]", "value": "> 21.8", "unit": "µM"},
      {"measurement": "GI50", "setting": "[8]", "value": 4.1, "unit": "µM"},
      {"measurement": "TGI", "setting": "[8]", "value": 9.98, "unit": "µM"},
      {"measurement": "GI50", "setting": "[9]", "value": 3.26, "unit": "µM"},
      {"measurement": "TGI", "setting": "[9]", "value": "> 21.8", "unit": "µM"},
      {"measurement": "GI50", "setting": "[10]", "value": 3.26, "unit": "µM"},
      {"measurement": "TGI", "setting": "[10]", "value": 7.85, "unit": "µM"},
      {"measurement": "GI50", "setting": "[11]", "value": 3.84, "unit": "µM"},
      {"measurement": "TGI", "setting": "[11]", "value": 17.2, "unit": "µM"},
      {"measurement": "GI50", "setting": "[12]", "value": 3.85, "unit": "µM"},
      {"measurement": "TGI", "setting": "[12]", "value": 7.72, "unit": "µM"},
      {"measurement": "GI50", "setting": "[13]", "value": 3.39, "unit": "µM"},
      {"measurement": "TGI", "setting": "[13]", "value": 6.39, "unit": "µM"},
      {"measurement": "GI50", "setting": "[14]", "value": 3.79, "unit": "µM"},
      {"measurement": "TGI", "setting": "[14]", "value": "> 21.8", "unit": "µM"},
      {"measurement": "GI50", "setting": "[15]", "value": 3.68, "unit": "µM"},
      {"measurement": "TGI", "setting": "[15]", "value": 11.5, "unit": "µM"},
      {"measurement": "GI50", "setting": "[16]", "value": "> 21.8", "unit": "µM"},
      {"measurement": "TGI", "setting": "[16]", "value": "> 21.8", "unit": "µM"},
      {"measurement": "GI50", "setting": "[17]", "value": "> 21.8", "unit": "µM"},
      {"measurement": "TGI", "setting": "[17]", "value": "> 21.8", "unit": "µM"},
      {"measurement": "GI50", "setting": "[18]", "value": 8.19, "unit": "µM"},
      {"measurement": "TGI", "setting": "[18]", "value": "> 21.8", "unit": "µM"},
      {"measurement": "GI50", "setting": "[19]", "value": 3.53, "unit": "µM"},
      {"measurement": "TGI", "setting": "[19]", "value": 7.61, "unit": "µM"},
      {"measurement": "GI50", "setting": "[20]", "value": 3.38, "unit": "µM"},
      {"measurement": "TGI", "setting": "[20]", "value": 6.31, "unit": "µM"},
      {"measurement": "GI50", "setting": "[21]", "value": 4, "unit": "µM"},
      {"measurement": "TGI", "setting": "[21]", "value": 9.17, "unit": "µM"},
      {"measurement": "GI50", "setting": "[22]", "value": 3.39, "unit": "µM"},
      {"measurement": "TGI", "setting": "[22]", "value": 6.91, "unit": "µM"},
      {"measurement": "GI50", "setting": "[23]", "value": 0.625, "unit": "µM"},
      {"measurement": "TGI", "setting": "[23]", "value": 4.98, "unit": "µM"},
      {"measurement": "GI50", "setting": "[24]", "value": "> 21.8", "unit": "µM"},
      {"measurement": "TGI", "setting": "[24]", "value": "> 21.8", "unit": "µM"},
      {"measurement": "GI50", "setting": "[25]", "value": "> 21.8", "unit": "µM"},
      {"measurement": "TGI", "setting": "[25]", "value": "> 21.8", "unit": "µM"},
      {"measurement": "GI50", "setting": "[26]", "value": 4.7, "unit": "µM"},
      {"measurement": "TGI", "setting": "[26]", "value": 21, "unit": "µM"},
      {"measurement": "GI50", "setting": "[27]", "value": 2.55, "unit": "µM"},
      {"measurement": "TGI", "setting": "[27]", "value": 6.6, "unit": "µM"},
      {"measurement": "GI50", "setting": "[28]", "value": 3.18, "unit": "µM"},
      {"measurement": "TGI", "setting": "[28]", "value": 6.3, "unit": "µM"},
      {"measurement": "GI50", "setting": "[29]", "value": 3.82, "unit": "µM"},
      {"measurement": "TGI", "setting": "[29]", "value": 10.4, "unit": "µM"},
      {"measurement": "GI50", "setting": "[30]", "value": 5.2, "unit": "µM"},
      {"measurement": "TGI", "setting": "[30]", "value": 17.2, "unit": "µM"}
    ]}
  ]
}
